From PubChem BioAssay (NCI)
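Exposure lasted 48 hours, with cells grown in 96-well plates and compounds tested at five concentrations. GI50: concentration for 50% inhibition of growth. Definition used: TGI = concentration required for complete inhibition of growth.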

Experiments:
Assay in all cases: inhibition of tumour cell growth, NCI panel, 48 h
[1] = tested on: MALME-3M melanoma
[2] = tested on: HCC-2998 colon
[3] = tested on: EKVX NSCLC
[4] = tested on: HL-60(TB) leukemia
[5] = tested on: MOLT-4 leukemia
[6] = tested on: OVCAR-8 ovarian
[7] = tested on: HOP-92 NSCLC
[8] = tested on: UACC-62 melanoma
[9] = tested on: 786-0 renal
[10] = tested on: SR leukemia

| Compound | TGI [1] | TGI [2] | TGI [3] | TGI [4] | TGI [5] | TGI [6] | TGI [7] | TGI [8] | TGI [9] | TGI [10] | GI50 [1] | GI50 [10] | GI50 [2] | GI50 [4] | GI50 [5] | GI50 [6] | GI50 [7] | GI50 [8] | GI50 [9] | GI50 [3] |
| --- | --- | --- | --- | --- | --- | --- | --- | --- | --- | --- | --- | --- | --- | --- | --- | --- | --- | --- | --- | --- |
| COc1cc(/C=C/C(=O)c2sc(Nc3ccccc3)nc2C)ccc1O | > 100 µM | > 100 µM | > 100 µM | > 100 µM | > 100 µM | > 100 µM | > 100 µM | > 100 µM | > 100 µM |  |  |  |  |  |  |  |  |  |  |  |
| Cc1ccc(NC(=O)/C(=N\Nc2ccc([N+](=O)[O-])cc2[N+](=O)[O-])C2C(=O)NC(=O)NC2=O)cc1 | > 100 µM |  |  | > 100 µM |  | > 100 µM | > 100 µM | 97.6 µM | > 100 µM | > 100 µM |  |  |  |  |  |  |  |  |  |  |
| CCCCN(Cc1ccc(F)cc1)c1ccc(CO)c(Cl)c1 | 33.8 µM | 26.7 µM |  | 34 µM | 43.1 µM | 28.5 µM | 19.5 µM | 4.84 µM | 25.6 µM | 34.7 µM | 17.7 µM | 14.6 µM | 12.4 µM | 14.1 µM | 17.8 µM | 14.2 µM | 3.32 µM | 0.903 µM | 12.2 µM |  |
| Cc1ccc(C(O)c2cnc(C)n2Cc2ccccc2)cc1 (stereo not given) | > 100 µM | > 100 µM | > 100 µM | > 100 µM |  | > 100 µM | > 100 µM | > 100 µM | > 100 µM | > 100 µM |  |  |  |  |  |  |  |  |  |  |
| N#C/C(=C\c1cccc(O)c1)C(N)=O | > 100 µM | > 100 µM | > 100 µM | 43.5 µM | > 100 µM | > 100 µM | > 100 µM | > 100 µM | > 100 µM |  |  |  |  |  |  |  |  |  |  |  |
| O=C1C2=C(c3ccccc31)C(c1ccccc1)NC(=S)N2 (stereo not given) | > 100 µM | > 100 µM | > 100 µM | 39.6 µM | > 100 µM | > 100 µM | 97.1 µM | > 100 µM | 85 µM |  |  |  |  |  |  |  |  |  |  |  |
| OCCCCCCOc1ccc(-c2cc(-c3ccccn3)nc(-c3ccccn3)c2)cc1 | 9.38 µM | 16.3 µM | 4.97 µM | 0.514 µM | 2.53 µM | 1.7 µM | 14.8 µM | 0.933 µM | 0.551 µM |  |  |  |  |  |  |  |  |  |  |  |
| C=C1CC[C@@H]2[C@](C)(COC(C)=O)[C@H](OC(C)=O)CC[C@@]2(C)[C@@H]1CC(Nc1ccc(S(=O)(=O)Nc2nccc(C)n2)cc1)C1=CCOC1=O (stereo not given in full) |  | 17.9 µM | 27.1 µM | 5.63 µM | 17.9 µM | 8.56 µM | 18.9 µM | 7.13 µM | 5.06 µM | > 100 µM |  | 0.753 µM | 4.98 µM | 2.1 µM | 3.22 µM | 2.61 µM | 6.24 µM | 2.38 µM | 2.27 µM | 13.9 µM |
| O=C(O)c1cc(=O)c2[nH]c3ccccc3c2s1 | > 100 µM | > 100 µM | > 100 µM | > 100 µM | > 100 µM | > 100 µM | > 100 µM | > 100 µM | > 100 µM |  |  |  |  |  |  |  |  |  |  |  |
| Nc1nc2c(c(=O)[nH]1)CN(c1ccc(S(N)(=O)=O)cc1)CN2 | > 100 µM |  | > 100 µM |  | > 100 µM | > 100 µM | > 100 µM | > 100 µM | > 100 µM | > 100 µM |  |  |  |  |  |  |  |  |  |  |
